Read-outs that look alike come from different tables or passages of the source.
How the values were obtained:
breast cancer [1] = settings: five years adjuvant tamoxifen after primary surgery; ER positive tumors, irrespective of lymph node status; cited from earlier work
[2] = test system: ERα positive breast cancer; settings: cited from earlier work
[3] = test system: stage II primary breast carcinoma; test: Controlled, randomized adjuvant tamoxifen trial; Kaplan-Meier survival analysis by CRABP2 level on breast cancer TMA; format: in vivo, human
Excerpt: Median age at diagnosis was 45 (25-57) years. Median follow-up was 13.9 years and less than 2% of the patients had received adjuvant chemotherapy. The study design is described in detail elsewhere (Rydén et al, Eur J Cancer, 2005, 41(2): 256-64). Ethical permission was obtained from the Local Ethics Committees at Lund and Linköping Universities.
All cases had been histopathologically re-evaluated on hematoxylin and eosin stained slides. TMA:s were then constructed by sampling 2×0.6 mm cores per case from areas representative of invasive cancer. The TMA:s were prepared and automated immunohistochemistry was performed as described in section 3 above, using the CRABP2 antibody prepared as described in section 2 above.
As with “staining intensity” in Examples, Section 3 above, ni was subjectively evaluated in accordance to standards used in clinical histo-pathological diagnostics and outcome was classified as: absent (O)=no immunoreactivity, weak (1)=faint immunoreactivity, moderate (2)=medium immunoreactivity or strong (3)=distinct and strong immunoreactivity. Further, as with “the fraction of stained cells” in Examples, Section 3 above, nf was classified as <2%, 2-25%, 26-75% or >75%. Two categories were defined: “CRABP2 low” corresponding to nf<=25% and ni=0-1; and “CRABP2 high” corresponding to nf>25% and/or ni=2-3 (FIG. 1). This classification of samples was used for recurrence free survival (RFS) or breast cancer specific survival ([…]) analysis according to the Kaplan-Meier estimator, and the log-rank test was used to compare survival in different strata. All statistical tests were two-sided, and p-values of <[…] were considered significant. All calculations were made with the statistical package SPSS 12.0 (SPSS Inc. Illinois, USA).

ERα+/PR+ tumors = settings: cited from earlier work
breast cancer [4] = settings: cited from earlier work
ERα+/PR− tumors = settings: postmenopausal women, follow-up 6 years, compared to patients treated with tamoxifen; cited from earlier work

## CC/C(=C(\c1ccccc1)c1ccc(OCCN(C)C)cc1)c1ccccc1 [tamoxifen]
Breast cancer [1]
  breast cancer mortality: reduces the breast cancer mortality
[2]
  ERα positive patients that do not respond to treatment: 30-40%
[3]; CRABP2 high tumors, irrespective of ER status, adjuvant tamoxifen 2 years vs control (FIG. 3B)
  recurrence free survival (RFS): improved survival
[3]; CRABP2 low tumors, irrespective of ER status, tamoxifen vs control (FIG. 3A)
  recurrence free survival (RFS): no impact on survival
[3]; ERα+ and CRABP2 high, tamoxifen vs control (FIG. 4B)
  recurrence free survival (RFS): a trend towards a positive response
[3]; ERα+ and CRABP2 low, tamoxifen vs control (FIG. 4A)
  recurrence free survival (RFS): a trend towards a positive response
[3]; ERα− and CRABP2 high, tamoxifen vs control (FIG. 5B)
  recurrence free survival (RFS): positively affected
[3]; ERα− and CRABP2 high, tamoxifen vs control (FIG. 6B)
  breast cancer specific survival (BCSS): better trend
[3]; ERα− and CRABP2 low, tamoxifen vs control (FIG. 5A)
  recurrence free survival (RFS): negatively affected
[3]; ERα− and CRABP2 low, tamoxifen vs control (FIG. 6A)
  breast cancer specific survival (BCSS): worse trend
[3]; ERα− and PR−, CRABP2 high, tamoxifen vs control (FIG. 11b)
  recurrence free survival (RFS): better trend
[3]; ERα− and PR−, CRABP2 high, tamoxifen vs control (FIG. 12b)
  breast cancer specific survival (BCSS): better trend
[3]; ERα− and PR−, CRABP2 low, tamoxifen vs control (FIG. 11a)
  recurrence free survival (RFS): worse trend
[3]; ERα− and PR−, CRABP2 low, tamoxifen vs control (FIG. 12a)
  breast cancer specific survival (BCSS): worse trend
[3]; ERα− and/or PR−, CRABP2 high, tamoxifen vs control (FIG. 9b)
  recurrence free survival (RFS): better trend
[3]; ERα− and/or PR−, CRABP2 high, tamoxifen vs control (FIG. 10b)
  breast cancer specific survival (BCSS): better trend
[3]; ERα− and/or PR−, CRABP2 low, tamoxifen vs control (FIG. 9a)
  recurrence free survival (RFS): worse trend
[3]; ERα− and/or PR−, CRABP2 low, tamoxifen vs control (FIG. 10a)
  breast cancer specific survival (BCSS): worse trend
[3]; PR− and CRABP2 high, tamoxifen vs control (FIG. 7B)
  recurrence free survival (RFS): better survival probability trend
[3]; PR− and CRABP2 high, tamoxifen vs control (FIG. 8B)
  breast cancer specific survival (BCSS): better trend
[3]; PR− and CRABP2 low, tamoxifen vs control (FIG. 7A)
  recurrence free survival (RFS): negatively affected
[3]; PR− and CRABP2 low, tamoxifen vs control (FIG. 8A)
  breast cancer specific survival (BCSS): worse trend
ERα+/PR+ tumors; older patients (≧60 years), ERα+/PR+ tumors, tamoxifen vs no adjuvant treatment
  disease free survival: significantly longer disease free survival
ERα+/PR+ tumors; younger patients (<60 years)
  disease free survival: no significant effect
Breast cancer [4]; high PR level, >75% nuclear fraction, irrespectively of ERα status
  recurrence-free and overall survival: significantly correlated with an increased recurrence-free and overall survival
Breast cancer [4]; lower PR level, <75%
  recurrence-free and overall survival: no positive effect

## CC(C)(C#N)c1cc(Cn2cncn2)cc(C(C)(C)C#N)c1 [anastrozole]
ERα+/PR− tumors
  recurrence rate: halved

Source: patent US20110003854A1, “BREAST CANCER TREATMENT AND TREATMENT PREDICTION” (priority 2007, published 2011)
